Measured values as given in patent publication US20140011977A1, “CHIMERIC MOLECULES TO MODULATE GENE EXPRESSION” (Cold Spring Harbor Laboratory, priority 2000, published 2014).

B1: SC35: recombinant human SR protein SC35 used to complement S100 extract (protein, UniProt Q01130 2-221, looked up)
Serine/arginine-rich splicing …: SYGRPPPDVEGMTSLKVDNLTYRTSPDTLRRVFEKYGRVGDVYIPRDRYTKESRGFAFVRFHDKRDAEDAMDAMDGAVLDGRELRVQMARYGRPPDSHHSRRGPPPRRYGGGGYGRRSRSPRRRRRSRSRSRSRSRSRSRSRYSRSKSRSRTRSRSRSTSKSRSARRSKSKSSSVSRSRSRSRSRSRSRSPPPVSKRESKSRSRSKSPPKSPEEEGAVSS

Columns and labels:
[1] = tested on: SMN2 pre-mRNA exon 7; assay: S100 extract complementation in vitro splicing, SMN2 pre-mRNA; type: biochemical, human
Method: (§1) Finally, splicing of SNM1 and SMN2 pre-mRNAs in S100-complementation experiments was used to test the SR protein specificity of the ESEs. S100 extract is a post-nuclear, post-ribosomal fraction capable of supporting in vitro splicing only when complemented with one or more SR proteins. When the SMN pre-mRNAs were incubated in S100 extract alone, spliced products were barely detectable (FIG. 17b, lanes 5-8).
(§2) 5′ capped, T7 runoff transcripts from purified PCR products were uniformly labeled with [α-^32P] UTP, purified by denaturing PAGE, and spliced in HeLa cell nuclear or S100 extracts, as described. Briefly, 10 fmol of transcript was incubated in 12.5-μl standard splicing reactions containing 3 μl of nuclear extract or 2 μl of S100 extract complemented with 4 pmol of recombinant SC35 or SF2/ASF. The MgCl2 concentration was 2.4 mM for BRCA1 transcripts and 1.6 mM for SMN transcripts. After incubation at 30° C. for 4 hours, RNA was extracted and analyzed on 12% (BRCA1) or 8% (SMN) denaturing polyacrylamide gels, followed by autoradiography and phosphorimager analysis. Exon inclusion was calculated as a percentage of the total amount of spliced mRNAs, i.e., included mRNA×100/(included mRNA+skipped mRNA).

[2] = tested on: SMN1 pre-mRNA exon 7; assay: S100 extract complementation in vitro splicing, SMN1 pre-mRNA; type: biochemical, human; settings: S100 extract complemented with 4 pmol recombinant SR protein, 4 hours
Method: as §1, §2

[3] = tested on: β-globin pre-mRNA; assay: S100 extract complementation with β-globin pre-mRNA; type: biochemical; settings: data not shown

Row | Molecule | exon 7 inclusion, SMN2 pre-mRNA ([1]; S100 extract complemented with 4 pmol recombinant SR protein, 4 hours) | exon 7 inclusion, SMN2 context, high concentrations of SR protein ([1]; S100 extract, high concentrations, data not shown) | exon 7 inclusion, SMN1 pre-mRNA [2] | complementation of S100 extract [3]
1 | SF2/ASF: recombinant human SR protein SF2/ASF used to complement S100 extract | much less efficiently | promoted significant inclusion | promoted exon 7 inclusion | 
2 | B1 |  |  | failed to drive exon 7 inclusion | efficiently complemented S100 extract
